Assay results reported in publication PMC10447463, “Data-mining unveils structure–property–activity correlation of viral infectivity enhancing self-assembling peptides” (Nature Communications, 2023).
Where two headings read alike, the source gives them in different places.

Legend:
[1] = Zeta-potential measurement; format: physicochemical; conditions: for Zeta-pot. / mV: zeta potential of peptide, Fig S15 source data; for Zeta pot. / mV: 1 mg/mL in PBS pH 7.4 from 10 mg/mL DMSO stock, 1 d RT, 60 µL diluted in 600 µL 1 mM KCl, Zetasizer Nano ZS, Smoluchowski, mean of triplicate; for Zeta-Potential / mV: Figure 6C
Summary of the method: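 Dissolve peptide from DMSO (10 mg/mL stock) into PBS pH 7.4 to 1 mg/mL. Incubate 1 d, RT. Dilute in 1 mM KCl just before reading. Derive zeta potential from mobility (Smoluchowski).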

[2] = Turbidity, derived count rate of scattered light; format: physicochemical; conditions: for Count Rate / kcps: derived count rate of scattered light at 633 nm, 173°, from zeta-potential measurement, 0.1 mg/mL in 1 mM KCl after 1 d at 1 mg/mL in PBS, turbidity / microscopic aggregation, mean of triplicate
Summary of the method: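 One-day room-temperature aggregation at 1 mg/mL in PBS (pH 7.4) preceded measurement; samples then went into 1 mM KCl. Triplicates per sample, two independent experiments averaged.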

[3] = log10 of derived count rate of scattered light, Figure 6C
[4] = logarithm of count rate in kcps
[5] = derived count rate of scattered light
[6] = derived count rate from zeta measurement, mean
[7] = derived count rate of scattered light, mean, std deviation in separate column

| Substance | Zeta-pot. / mV [1] [mV] | Count Rate / kcps [2] [kcps] | Log10 Count Rate [2, 3] | Log10 Count Rate [2, 4] | Zeta-Potential / mV ([1]; mean) [mV] | Zeta category ( +1 = if > 4 mV;-1 = if < -4 mV; 0 = -4mV to 4 mV) [1] | also measured |
| --- | --- | --- | --- | --- | --- | --- | --- |
| NMWQKIKQII [JG8] | -0.213 | – | – | – | – | – | Zeta category ( +1 = if > 4 mV;-1 = if < -4 mV; 0 = -4mV to 4 mV) ([1]; FigS26): 0 (0 = -4mV to 4 mV) |
| CRLSLSLS | – | 1697 | 3.23 | 3.23 | 8.977 | – | Zeta pot. / mV [1]: 8.977 mV |
| KFQFNMW | – | 331.6 | 2.521 | 2.521 | 8.763 | – | – |
| HHHHKAKAKAKAWWWW [TM8] | 17.4 | – | – | – | – | 1 (+1 = if > 4 mV) | Zeta Count Rate Category ([2]; category 1 / 0, no key given): 1; Zeta Count Rate / kcps [2, 5]: 658.9 kcps; Zeta Pot. / mV [1]: 17.4 mV |
| CKIWIQIY | – | 1842.4 | 3.265 | 3.265 | 4.537 | – | – |
| KIKIQIMWNQ [VH15] | 2.96 | – | – | – | – | – | Zeta category ( +1 = if > 4 mV;-1 = if < -4 mV; 0 = -4mV to 4 mV) ([1]; FigS26): 0 (0 = -4mV to 4 mV) |
| KIKIQII [TG1 / (KM4)] | 5.61 | – | – | – | – | 1 (+1 = if > 4 mV) | Zeta Count Rate Category ([2]; category 1 / 0, no key given): 1; Zeta Count Rate / kcps [2, 6]: 1039 kcps; Zeta Count Rate / kcps [2, 5]: 1039 kcps; Zeta Count Rate / kcps [2, 7]: 1039 kcps; Zeta Count Rate Category ([2]; key not given): 1; Zeta Pot. / mV [1]: 5.61 mV; Zeta Pot. / mV ([1]; mean, Std in separate column): 5.61 mV |
| KIKIQIII [TG7] | 19.8 | – | – | – | – | 1 (+1 = if > 4 mV) | Zeta Count Rate Category ([2]; category 1 / 0, no key given): 0; Zeta Count Rate / kcps [2, 6]: 94.97 kcps; Zeta Count Rate / kcps [2, 5]: 94.97 kcps; Zeta Count Rate / kcps [2, 7]: 94.97 kcps; Zeta Count Rate Category ([2]; key not given): 0; Zeta Pot. / mV [1]: 19.8 mV; Zeta Pot. / mV ([1]; mean, Std in separate column): 19.8 mV |
| KFKFQFNMW [BL5 / KB13] | 22.6 | – | – | – | – | 1 (+1 = if > 4 mV) | Zeta Count Rate / kcps [2, 7]: 610.2 kcps; Zeta Pot. / mV ([1]; mean, Std in separate column): 22.6 mV |
| CEFEFQF [KB12] | -13.7 | – | – | – | – | -1 (-1 = if < -4 mV) | Zeta Count Rate / kcps [2, 6]: 405.4 kcps; Zeta Count Rate Category ([2]; key not given): 1; Zeta Pot. / mV ([1]; mean, Std in separate column): -24.5 mV |
| KVKVQVVV [TG8] | 0.147 | – | – | – | – | 0 (0 = -4mV to 4 mV) | Zeta Count Rate Category ([2]; category 1 / 0, no key given): 1; Zeta Count Rate / kcps [2, 6]: 163.1 kcps; Zeta Count Rate / kcps [2, 5]: 163.1 kcps; Zeta Count Rate Category ([2]; key not given): 1; Zeta Pot. / mV [1]: 0.147 mV; Zeta Pot. / mV ([1]; mean, Std in separate column): 0.147 mV |
| RIRFHIW | – | 12.4 | 1.093 | 1.093 | 0.107 | – | Zeta pot. / mV [1]: 0.107 mV |
| KIKIQIW [TM69] | 12.5 | – | – | – | – | 1 (+1 = if > 4 mV) | Zeta Count Rate Category ([2]; category 1 / 0, no key given): 1; Zeta Count Rate / kcps [2, 5]: 144.9 kcps; Zeta Count Rate / kcps [2, 7]: 144.9 kcps; Zeta Pot. / mV [1]: 12.5 mV; Zeta Pot. / mV ([1]; mean, Std in separate column): 12.5 mV |
| KIKIQIRGD [MG6] | 6.43 | – | – | – | – | – | Zeta category ( +1 = if > 4 mV;-1 = if < -4 mV; 0 = -4mV to 4 mV) ([1]; FigS26): 1 (+1 = if > 4 mV) |
| RINFWFW | – | 50995.8 | 4.708 | 4.708 | 10.8 | – | – |
| NMWQKAKAQA [JG10] | -5.56 | – | – | – | – | – | Zeta category ( +1 = if > 4 mV;-1 = if < -4 mV; 0 = -4mV to 4 mV) ([1]; FigS26): -1 (-1 = if < -4 mV) |
| RVHLGLG | – | 28.33 | 1.4523 | 1.4523 | -6.01 | – | Zeta pot. / mV [1]: -6.01 mV |
| KLKLTLT | – | 198.5 | 2.298 | 2.298 | 1.713 | – | Zeta pot. / mV [1]: 1.713 mV |
| KFKQFFINMWQ [VH14] | 7.99 | – | – | – | – | 1 (+1 = if > 4 mV) | Zeta Count Rate Category ([2]; category 1 / 0, no key given): 1; Zeta Count Rate / kcps [2, 5]: 8996 kcps; Zeta Pot. / mV [1]: 7.99 mV |

| Substance | Zeta-pot. / mV [1] [mV] | Count Rate / kcps [2] [kcps] | Log10 Count Rate [2, 3] | Log10 Count Rate [2, 4] | Zeta-Potential / mV ([1]; mean) [mV] | Zeta category ( +1 = if > 4 mV;-1 = if < -4 mV; 0 = -4mV to 4 mV) [1] | also measured |
| --- | --- | --- | --- | --- | --- | --- | --- |
| RVRVTVT | – | 25.33 | 1.404 | 1.404 | -3.713 | – | Zeta pot. / mV [1]: -3.713 mV |
| KIKIKIKI [TM13] | 5.46 | – | – | – | – | 1 (+1 = if > 4 mV) | Zeta Count Rate / kcps [2, 7]: 155.1 kcps; Zeta Pot. / mV ([1]; mean, Std in separate column): 5.46 mV |
| NMWQKIKIQI [JG9] | 8.26 | – | – | – | – | – | Zeta category ( +1 = if > 4 mV;-1 = if < -4 mV; 0 = -4mV to 4 mV) ([1]; FigS26): 1 (+1 = if > 4 mV) |
| KIWIWIW | – | 6186.6 | 3.791 | 3.791 | 11.33 | – | – |
| KIKIQINAWQ [JR3-II] | 13.1 | – | – | – | – | – | Zeta category ( +1 = if > 4 mV;-1 = if < -4 mV; 0 = -4mV to 4 mV) ([1]; FigS26): 1 (+1 = if > 4 mV) |
| KAQCTLP | – | 97.27 | 1.988 | 1.988 | -8.503 | – | Zeta pot. / mV [1]: -8.503 mV |
| CRLRVGVS | – | 35.07 | 1.545 | 1.545 | 10.53 | – | Zeta pot. / mV [1]: 10.53 mV |
| KIKIQINMWA [JR1] | 14.7 | – | – | – | – | – | Zeta category ( +1 = if > 4 mV;-1 = if < -4 mV; 0 = -4mV to 4 mV) ([1]; FigS26): 1 (+1 = if > 4 mV) |
| CRFRFHFH | – | 430.2 | 2.634 | 2.634 | 19.6 | – | – |
| EIEIQINM [TM95 / (TM75)] | -23.33 | – | – | – | – | -1 (-1 = if < -4 mV) | Zeta Count Rate / kcps [2, 6]: 134 kcps; Zeta Count Rate Category ([2]; key not given): 1; Zeta Pot. / mV ([1]; mean, Std in separate column): -23.33 mV |
| KIKIQINMAQ [JR2] | 3.07 | – | – | – | – | – | Zeta category ( +1 = if > 4 mV;-1 = if < -4 mV; 0 = -4mV to 4 mV) ([1]; FigS26): 0 (0 = -4mV to 4 mV) |
| CKIKIWIW | – | 3321 | 3.521 | 3.521 | 19.13 | – | – |
| KFKFQFN [BL7] | 12.7 | – | – | – | – | 1 (+1 = if > 4 mV) | Zeta Count Rate / kcps [2, 7]: 50.7 kcps; Zeta Pot. / mV ([1]; mean, Std in separate column): 12.7 mV |
| KAKQAANMWQ [JG6] | -12.9 | – | – | – | – | -1 (-1 = if < -4 mV) | Zeta Count Rate Category ([2]; category 1 / 0, no key given): 1; Zeta Count Rate / kcps [2, 5]: 690.5 kcps; Zeta Pot. / mV [1]: -12.9 mV |
| KVKVQVV [TG2] | -7.92 | – | – | – | – | -1 (-1 = if < -4 mV) | Zeta Count Rate Category ([2]; category 1 / 0, no key given): 0; Zeta Count Rate / kcps [2, 6]: 27.73 kcps; Zeta Count Rate / kcps [2, 5]: 27.73 kcps; Zeta Count Rate Category ([2]; key not given): 0; Zeta Pot. / mV [1]: -7.92 mV; Zeta Pot. / mV ([1]; mean, Std in separate column): -7.92 mV |
| NMWQKFKFQF [JG11] | 9.56 | – | – | – | – | – | Zeta category ( +1 = if > 4 mV;-1 = if < -4 mV; 0 = -4mV to 4 mV) ([1]; FigS26): 1 (+1 = if > 4 mV) |
| KIKIQIAMWQ [JR4] | 11.3 | – | – | – | – | – | Zeta category ( +1 = if > 4 mV;-1 = if < -4 mV; 0 = -4mV to 4 mV) ([1]; FigS26): 1 (+1 = if > 4 mV) |
| KIKIQIMQWN [VH16] | 9.44 | – | – | – | – | – | Zeta category ( +1 = if > 4 mV;-1 = if < -4 mV; 0 = -4mV to 4 mV) ([1]; FigS26): 1 (+1 = if > 4 mV) |
| KFKFQFF [TG6] | 6.903 | – | – | – | – | 0 (0 = -4mV to 4 mV) | – |
